# Read-outs that look alike come from different tables or passages of the source. Marks after values point to notes of the source that are not given here.
# Columns and labels:
# [1] = molecular target: T1, hERG (human ether-a-go-go-related gene) potassium channel (Homo sapiens, UniProt Q12809)
# Description: (§1) A patch-clamp assay on the QPatch© automated patch clamp system was employed to assesses whether compounds functionally enhance the cardiac delayed rectifier hERG (human ether-a-go-go-related gene) potassium channel. The assay measures electric the current passing through hERG channels that are heterologously expressed in a stable Chinese hamster ovary (CHO) cell line. Channels are opened by a hERG-specific voltage protocol and the compound effect is directly characterized by the activation of the hERG current. EC50 values are obtained from fitting 4-concentration dose response curves (1.1, 3.3, 10 & 30 uM) in triplicates at 4 different sections of the voltage protocol (steady state current amplitude at +10 mV, at +30 mV, peak tail current amplitude and tail current amplitude at 7 second).
# [2] = molecular target: T1, hERG (human ether-a-go-go-related gene) potassium channel; assay: QPatch automated patch-clamp hERG activator 4-concentration EC50 assay; settings: increase of hERG tail current amplitude at 7 second (TL7), hERG stably expressed in CHO cells
# Description: as §1
# T1 sequence (Q12809 whole entry): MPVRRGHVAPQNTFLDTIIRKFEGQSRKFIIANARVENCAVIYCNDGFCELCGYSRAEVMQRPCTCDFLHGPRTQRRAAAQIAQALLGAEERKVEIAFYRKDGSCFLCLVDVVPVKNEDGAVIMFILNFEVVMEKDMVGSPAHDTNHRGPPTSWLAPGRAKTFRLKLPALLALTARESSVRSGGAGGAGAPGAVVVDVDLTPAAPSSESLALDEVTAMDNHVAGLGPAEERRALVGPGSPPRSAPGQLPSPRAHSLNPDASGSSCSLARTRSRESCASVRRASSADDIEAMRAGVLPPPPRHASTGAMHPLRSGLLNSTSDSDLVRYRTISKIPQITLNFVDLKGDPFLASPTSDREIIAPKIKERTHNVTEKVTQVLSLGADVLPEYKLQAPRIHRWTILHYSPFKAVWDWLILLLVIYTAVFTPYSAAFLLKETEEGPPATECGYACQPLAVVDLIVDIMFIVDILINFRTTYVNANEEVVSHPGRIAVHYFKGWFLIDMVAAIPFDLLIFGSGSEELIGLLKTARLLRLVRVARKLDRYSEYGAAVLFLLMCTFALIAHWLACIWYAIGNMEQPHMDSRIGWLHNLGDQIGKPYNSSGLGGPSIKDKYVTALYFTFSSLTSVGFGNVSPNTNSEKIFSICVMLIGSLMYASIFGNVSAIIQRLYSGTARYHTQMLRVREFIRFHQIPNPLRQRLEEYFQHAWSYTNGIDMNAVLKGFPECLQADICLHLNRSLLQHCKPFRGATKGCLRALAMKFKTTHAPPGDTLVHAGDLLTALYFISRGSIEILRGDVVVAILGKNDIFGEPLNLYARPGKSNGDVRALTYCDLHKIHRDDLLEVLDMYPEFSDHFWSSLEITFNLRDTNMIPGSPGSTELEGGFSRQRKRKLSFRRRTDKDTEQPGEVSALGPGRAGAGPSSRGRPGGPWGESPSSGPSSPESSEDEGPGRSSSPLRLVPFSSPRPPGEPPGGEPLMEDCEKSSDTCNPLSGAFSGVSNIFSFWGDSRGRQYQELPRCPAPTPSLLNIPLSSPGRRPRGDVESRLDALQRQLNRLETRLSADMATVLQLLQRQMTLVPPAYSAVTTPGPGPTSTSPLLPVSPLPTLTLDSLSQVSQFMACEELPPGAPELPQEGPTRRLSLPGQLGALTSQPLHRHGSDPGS
Compound,% change@TL7@10 uM [2],also measured
O=c1cc(C(F)(F)F)c2ccc(NCc3ccc4cc(-c5nn[nH]n5)oc4c3)cc2o1 [Example 222],–,% change@TL7@10 uM [1]: 41%
O=C(O)c1cc2ccc(CNc3ccc(S(F)(F)(F)(F)F)cc3)cc2o1 [Example 99],157%,–
CSc1cccc(NCc2ccc3cc(C(=O)O)oc3c2)c1 [Example 97],159%,–
CCCc1ccc(NC(C)c2ccc3oc(-c4nnn[nH]4)cc3c2)cc1Cl (stereo not shown) [Example 84],29%,–
CC(C)c1ccc(NCc2cc3oc(-c4nnn[nH]4)cc3cc2Cl)cc1C(F)(F)F [Example 207],297%,–
Cc1cc(NCc2ccc3cc(C(=O)O)oc3c2)ccc1OC(F)(F)F [Example 102],153%,–
FC(F)(F)Oc1ccc(NCc2ccc3cc(-c4nn[nH]n4)oc3c2)cc1Cl [Example 46],139%,–
CCCc1ccc(NC(C)c2ccc3oc(-c4nnn[nH]4)cc3c2)cc1C(F)(F)F (stereo not shown) [Example 81],74%,–
Fc1ccc(NCc2cc3oc(-c4nnn[nH]4)cc3cc2Cl)cc1CC(F)(F)F [Example 221],81%,–
CC(Nc1cc(Cl)c(Cl)c(Cl)c1)c1ccc2oc(-c3nnn[nH]3)cc2c1 (stereo not shown) [Example 73],132%,–
Cc1cc(NCc2ccc3cc(-c4nn[nH]n4)oc3c2)ccc1OC(F)(F)F [Example 21],333%,–
FC(F)(F)COc1ccc(NCc2ccc3cc(-c4nn[nH]n4)oc3c2)cc1C(F)(F)F [Example 27],261%,–
FC1(F)Oc2ccc(NCc3ccc4cc(-c5nn[nH]n5)oc4c3)cc2O1 [Example 40],161%,–
O=C(O)c1cc2cc(F)c(CNc3cc(Cl)c(Cl)c(Cl)c3)cc2o1 [Example 232],247%,–
Fc1c(CNc2ccc(OCC(F)(F)F)c(C(F)(F)F)c2)ccc2cc(-c3nnn[nH]3)oc12 [Example 154],325%,–
FC(F)(F)c1cc(NCc2cc3oc(-c4nnn[nH]4)cc3cc2Cl)cc(C(F)(F)F)c1Br [Example 189],350%,–
Fc1ccc(NCc2ccc3cc(-c4nn[nH]n4)oc3c2)cc1CC(F)(F)F [Example 58],71%,–
N#Cc1cc(NCc2ccc3cc(-c4nnn[nH]4)oc3c2Cl)ccc1OC(F)F [Example 202],174%,–
CCCc1ccc(NCc2cc3oc(-c4nnn[nH]4)cc3cc2Cl)cc1Cl [Example 12],85%,–
Fc1cc2cc(-c3nnn[nH]3)oc2cc1CNc1ccc(C(F)(F)F)c(C(F)(F)F)c1 [Example 158],277%,–
O=C(O)c1cc2ccc(CNc3ccc(OC(F)(F)F)c(C(F)(F)F)c3)cc2o1 [Example 92],215%,–
COc1c(F)cc(NCc2ccc3cc(-c4nn[nH]n4)oc3c2)cc1Br [Example 1],–,% change@TL7 (*@3.3 uM) ([2]; 3.3 uM (footnote *)): 166* %
Fc1cc2cc(-c3nnn[nH]3)oc2cc1CNc1ccc(OCC(F)(F)F)c(Cl)c1 [Example 205],222%,–

Compound,% change@TL7@10 uM [2],also measured
Fc1cc2cc(-c3nnn[nH]3)oc2cc1CNc1ccc(F)c(C(F)(F)F)c1 [Example 176],120%,–
FC(F)(F)c1ccc(NCc2cc3oc(-c4nnn[nH]4)cc3cc2Cl)cc1Cl [Example 198],187%,–
Clc1ccc(NCc2cc3cc(-c4nnn[nH]4)oc3cc2Cl)cc1Cl [Example 139],112%,–
FC(F)(F)c1cc(NCc2ccc3cc(-c4nn[nH]n4)oc3c2)ccc1Br [Example 39],164%,–
FC(F)(F)c1ccc(NCc2ccc3c(C(F)(F)F)c(-c4nnn[nH]4)oc3c2)cc1Cl [Example 61],47%,–
FC(F)(F)COc1ccc(NCc2cc3oc(-c4nnn[nH]4)cc3cc2Cl)cc1Cl [Example 8],128%,–
O=C(O)c1cc2ccc(CNc3cc(Cl)c(F)c(C(F)(F)F)c3)cc2o1 [Example 110],76%,–
Fc1cc2cc(-c3nnn[nH]3)oc2cc1CNc1ccc(Cl)c(Br)c1 [Example 180],231%,–
"FC(F)(F)Oc1ccc(NCc2ccc3cc(-c4nn[nH]n4)oc3c2)cc1Br [Example 37, N-((2-(2H-tetrazol-5-yl)benzofuran-6-yl)methyl)-3-bromo-4-(trifluoromethoxy)aniline]",170%,–
Fc1cc2cc(-c3nnn[nH]3)oc2cc1CNc1ccc(OCC(F)(F)F)c(C(F)(F)F)c1 [Example 168],240%,–
Fc1cc2cc(-c3nnn[nH]3)oc2cc1CNc1cc(C(F)(F)F)c(Br)c(C(F)(F)F)c1 [Example 159],388%,–
FC(F)(F)Oc1cc(NCc2ccc3cc(-c4nn[nH]n4)oc3c2)ccc1Br [Example 48],123%,–
CCCc1ccc(NCc2ccc3c(C(F)(F)F)c(C(=O)O)oc3c2)cc1C(F)(F)F [Example 111],65%,–
CC(C)Oc1ccc(NCc2ccc3cc(-c4nnn[nH]4)oc3c2Cl)cc1C(F)(F)F [Example 171],291%,–
CCc1ccc(NCc2cc3oc(-c4nnn[nH]4)cc3cc2F)cc1Br [Example 181],322%,–
Fc1c(CNc2ccc(OC(F)(F)F)c(Br)c2)ccc2oc(-c3nnn[nH]3)cc12 [Example 140],290%,–
CCCc1ccc(NCc2ccc3c(C)c(-c4nnn[nH]4)oc3c2)cc1C(F)(F)F [Example 51],99%,–
O=C(O)c1cc2cc(F)c(CNc3ccc(OCC(F)(F)F)c(C(F)(F)F)c3)cc2o1 [Example 231],239%,–
CCCc1ccc(NCc2cc3oc(-c4nnn[nH]4)cc3cc2Cl)cc1C(F)(F)F [Example 31],218%,–
Cc1cc(NCc2cc3oc(-c4nnn[nH]4)cc3cc2F)cc(C(F)(F)F)c1 [Example 195],249%,–
O=C(O)c1cc2ccc(CNc3cccc(N4CCOCC4)c3)cc2o1 [Example 109],81%,–
Fc1ccc(NCc2ccc3oc(-c4nnn[nH]4)cc3c2)cc1OC(F)(F)F [Example 72],176%,–
Cc1c(-c2nnn[nH]2)oc2cc(CNc3ccc(OC(F)(F)F)c(Br)c3)ccc12 [Example 53],95%,–

Compound,% change@TL7@10 uM [2],also measured
FC(F)(F)COc1ccc(NCc2cc3oc(-c4nnn[nH]4)cc3cc2Cl)cc1C(F)(F)F [Example 22],328%,–
FC(F)Oc1ccc(NCc2cc3oc(-c4nnn[nH]4)cc3cc2Cl)cc1C(F)(F)F [Example 25],269%,–
CCCc1ccc(NCc2ccc3cc(C(=O)O)oc3c2)cc1C(F)(F)F [Example 95],193%,–
O=C(O)c1cc2ccc(CNc3ccc(SC(F)(F)F)c(Cl)c3)cc2o1 [Example 87],326%,–
O=C(O)c1cc2cc(Cl)c(CNc3ccc(OCC(F)(F)F)c(C(F)(F)F)c3)cc2o1 [Example 224],222%,–
CCCc1cc(NCc2ccc3oc(C(=O)O)cc3c2)ccc1Cl [Example 126],64%,–
Fc1c(CNc2ccc(OCC(F)(F)F)c(C(F)(F)F)c2)ccc2oc(-c3nnn[nH]3)cc12 [Example 142],188%,–
COc1ccc(NCc2ccc3cc(C(=O)O)oc3c2)cc1C(F)(F)F [Example 117],28%,–
FC(F)(F)Oc1ccc(NCc2cc3oc(-c4nnn[nH]4)cc3cc2Cl)cc1Br [Example 36],174%,–
O=C(O)c1cc2ccc(CNc3ccc4c(c3)OC(F)(F)C(F)(F)O4)cc2o1 [Example 94],194%,–
Cc1cc2cc(NCc3cc4oc(-c5nnn[nH]5)cc4cc3Cl)cc(Cl)c2o1 [Example 188],108%,–
CCCc1ccc(NCc2cc3oc(-c4nnn[nH]4)cc3cc2Cl)cc1Br [Example 34],191%,–
FC(F)(F)Oc1ccc(NCc2ccc3c(C(F)(F)F)c(-c4nnn[nH]4)oc3c2)cc1Br [Example 47],131%,–
O=C(O)c1cc2cc(CNc3ccc(Cl)c(Cl)c3)ccc2o1 [Example 123],183%,–
COc1ccc(NCc2ccc3cc(C(=O)O)oc3c2)cc1Cl [Example 115],41%,–
Fc1c(Cl)cc(NCc2cc3oc(-c4nnn[nH]4)cc3cc2Cl)cc1C(F)(F)F [Example 201],225%,–
O=C(O)c1cc2ccc(CNc3ccc(SC(F)(F)F)cc3)cc2o1 [Example 113],53%,–
CCCc1ccc(NCc2ccc3cc(C(=O)O)oc3c2)cc1Cl [Example 93],212%,–
FC(F)(F)Oc1ccc(NCc2ccc3c(C(F)(F)F)c(-c4nnn[nH]4)oc3c2)cc1C(F)(F)F [Example 38],164%,–
CCCc1ccc(NCc2ccc3oc(-c4nnn[nH]4)cc3c2)cc1OC(F)(F)F [Example 76],120%,–
O=C(O)c1cc2cc(F)c(CNc3ccc(SC(F)(F)F)c(Cl)c3)cc2o1 [Example 228],140%,–

# — US9255093B2, “Polycyclic HERG activators” (NOVARTIS AG, priority 2014, dated 2016)
